# Reference: patent US20220072075A1, “METHOD FOR PRODUCING NATURAL ANTIMICROBIAL SUBSTANCE AND ANTIMICROBIAL COMPOSITION COMPRISING NATURAL ANTIMICROBIAL SUBSTANCE PRODUCED BY THE SAME” (MY CO.,LTD, priority 2020, published 2022)
# Tested on: Staphylococcus aureus
# Assay: Antimicrobial Efficacy Test 4: elimination of Staphylococcus aureus, identification using a mass spectrometer
# Type: cell-based
# Conditions: substance added as named (70% ethanol, Febreze)
# Experimental: In the present disclosure, “natural antimicrobial substance (n %)” means that the natural antimicrobial substance of the present disclosure is dissolved in multi-photocatalyst water or hypochlorous acid water (pH 5) at a concentration of n %. FIGS. 4 to 9 show the data obtained by identifying Staphylococcus aureus and Staphylococcus aureus plus specific substance using a mass spectrometer.
structure (smiles),measurement,value
"CCO [70% ethanol, ethanol]",elimination of Staphylococcus aureus (mass spectrum / bacterial identification),not eliminated
